# Experiments:
# [1] = tested on: Corn Earworm (Helicoverpa zea); assay: Insecticidal diet-surface test for corn earworm; assay type: in vivo; conditions: second-instar corn earworm, 50 ug/cm2 on diet surface, 5 days after treatment, dead insects of 8
# Protocol: (§1) The compounds identified in Table 1 were prepared using the procedures illustrated in the foregoing examples, and the compounds were tested against beet armyworm and corn earworm as follows:
# (§2) Insecticidal Test for Corn Earworm (Helicoverpa zea) and Beet Armyworm (Spodoptera exigua).
# (§3) To prepare test solution, the test compound was formulated at 2000 ppm solution as 4 mg/2 mL of 9 acetone:1 tap water. 50 μL of the 2000 ppm (equivalent to 50 ug/cm^2 dose on diet surface area) test solution was pipetted upon the surface of 1 mL of lepidopteran diet (Southland Multi-Species Lepidopteran Diet) contained in each of eight wells per insect species (one well=1 replication). A second-instar corn earworm and beet armyworm was placed upon the treated diet in each well once the solvent had air-dried. Trays containing the treated diet and larvae were covered and then held in a growth chamber at 25° C., 50-55% RH, and 16 hr light:8 hr dark for 5 days. Observation were conducted 5 days after treatment and infestation. The number of dead insects of 8 per species per treatment was then determined and the results are given in Table 1 as percent control at a dose of […].
# (§4) Keys to the table: Mass spectral data were obtained using liquid chromatography mass spectroscopy (LC-MS). The masses are detected using electrospray ionization (ESI) and reported as Mol Ion (M+H, M−H); AVG LAPHEG 50 refers to activity against beet army worm (Spodoptera exigua) as defined above; AVG HELIZE 50 refers to activity against corn ear worm (Helicoverpa zea) as described above.
# [2] = tested on: Beet Armyworm (Spodoptera exigua); assay: Insecticidal diet-surface test for beet armyworm; assay type: in vivo; conditions: second-instar beet armyworm, 50 ug/cm2 on diet surface, 5 days after treatment, dead insects of 8
# Protocol: as §1, §2, §3, §4
Compound,"HELIZE 50 (ug/cm2), percent control [1] [%]","LAPHEG 50 (ug/cm2), percent control [2] [%]"
Fc1ccc(Nc2cc(Cl)nc(N/N=C/c3ccc(OC(F)(F)C(F)F)cc3)n2)cc1C(F)(F)F [Compound 59],100,100
FC(F)(F)Oc1ccc(/C=N/Nc2nc(Nc3ccc(OC(F)(F)F)cc3)cc(C(F)(F)F)n2)cc1 [Compound 60],100,100
CN(/N=C/c1ccc(OC(F)(F)F)cc1)c1nc(Nc2ccc(OC(F)(F)F)cc2)cc(C(F)(F)F)n1 [Compound 61],88,88
Fc1ccc(Nc2cc(N3CCOCC3)nc(N/N=C/c3ccc(OC(F)(F)F)cc3)n2)cc1C(F)(F)F [Compound 62],100,100
Fc1ccc(Nc2cc(OCC(F)(F)F)nc(N/N=C/c3ccc(OC(F)(F)F)cc3)n2)cc1C(F)(F)F [Compound 63],100,100
COCCNc1cc(Nc2ccc(F)c(C(F)(F)F)c2)nc(N/N=C/c2ccc(OC(F)(F)F)cc2)n1 [Compound 64],100,100
CCNCCNc1cc(Nc2ccc(F)c(C(F)(F)F)c2)nc(N/N=C/c2ccc(OC(F)(F)F)cc2)n1 [Compound 65],100,100
Fc1ccc(Nc2cc(Cl)nc(N/N=C/c3ccc(Br)nc3)n2)cc1C(F)(F)F [Compound 66],75,100
CCOc1ccc(/C=N/Nc2nc(Cl)cc(Nc3ccc(F)c(C(F)(F)F)c3)n2)cn1 [Compound 67],100,100
Fc1ccc(Nc2cc(Cl)nc(N/N=C/c3ccc(C(F)(F)F)nc3)n2)cc1C(F)(F)F [Compound 68],100,100
FC(F)C(F)(F)Oc1cccc(Nc2cc(Cl)nc(N/N=C/c3ccc(C(F)(F)F)nc3)n2)c1 [Compound 69],0,75
Fc1ccc(Nc2cc(Cl)nc(N/N=C/c3ccc(OCC(F)(F)F)nc3)n2)cc1C(F)(F)F [Compound 70],100,100
FC(F)(F)COc1ccc(/C=N/Nc2nc(Cl)cc(Nc3cccc(Cl)c3)n2)cn1 [Compound 71],100,100
Fc1ccc(Nc2cc(C(F)(F)F)nc(N/N=C/c3ccc(C(F)(F)F)nc3)n2)cc1C(F)(F)F [Compound 72],100,100
FC(F)(F)Oc1ccc(/C=N/Nc2ccnc(Nc3ccc(OC(F)(F)F)cc3)n2)cc1 [Compound 73],100,100
FC(F)(F)Oc1ccc(Nc2nccc(N/N=C/c3ccc(C(F)(F)F)cc3)n2)cc1 [Compound 74],100,100
Fc1ccc(Nc2nc(Cl)cc(N/N=C/c3ccc(OC(F)(F)F)cc3)n2)cc1C(F)(F)F [Compound 75],100,100
Fc1ccc(Nc2nc(Cl)cc(N/N=C/c3ccc(OC(F)(F)C(F)F)cc3)n2)cc1C(F)(F)F [Compound 76],25,38
Fc1ccc(Nc2nccc(N/N=C/c3ccc(OC(F)(F)C(F)F)cc3)n2)cc1C(F)(F)F [Compound 77],100,100
Fc1ccc(Nc2ncc(F)c(NN=Cc3ccc(OC(F)(F)F)cc3)n2)cc1C(F)(F)F [Compound 78],100,100
Fc1cnc(Nc2cccc(C(F)(F)F)c2)nc1NN=Cc1ccc(OC(F)(F)F)cc1 [Compound 79],100,100
